Experimental data taken from PubChem BioAssay AID1918953 (Molecular Pharmacology Branch, DTP, NCI, 2023).

System: MDA-MB-231 complex spheroid viability
Test: Anticancer human tumor MDA-MB-231/ATCC cell line growth inhibition;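 also: drug exposure lasted 7 days starting on day 3 of spheroid growth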
Details: for IC50: curve of first compound; for viability, T/C: stronger effect = lower value
Outline: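 Drug combinations with the LSD1 inhibitor iadademstat tested on tumor cells co-cultured as spheroids with endothelial cells and mesenchymal stem cells. Concentrations descended in half-log increments from clinical Cmax or 10 microM.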

SMILES: O=C(C=Cc1cccc(S(=O)(=O)Nc2ccccc2)c1)NO + NC1CC1c1ccc(-c2cccc(O)c2)cc1
- IC50 (second compound 0.1 µM): 20.3 nM
- IC50 (second compound 0.316 µM): 13.2 nM
- IC50 (second compound 1 µM): 11.4 nM
- IC50 (second compound 3.16 µM): < 9.49 nM
- IC50 (second compound 10 µM): < 9.49 nM
- viability, T/C (second compound 0.1 µM, first compound 0.00949 µM): 61.6%
- viability, T/C (second compound 0.1 µM, first compound 0.03 µM): 44%
- viability, T/C (second compound 0.1 µM, first compound 0.0949 µM): 31.3%
- viability, T/C (second compound 0.1 µM, first compound 0.3 µM): 19.1%
- viability, T/C (second compound 0.1 µM, first compound 0.949 µM): 1.09%
- viability, T/C (second compound 0.1 µM, first compound 3 µM): 74.2%
- viability, T/C (second compound 0.316 µM, first compound 0.00949 µM): 55.9%
- viability, T/C (second compound 0.316 µM, first compound 0.03 µM): 35.5%
- viability, T/C (second compound 0.316 µM, first compound 0.0949 µM): 24.9%
- viability, T/C (second compound 0.316 µM, first compound 0.3 µM): 17.7%
- viability, T/C (second compound 0.316 µM, first compound 0.949 µM): 0.33%
- viability, T/C (second compound 0.316 µM, first compound 3 µM): 56.4%
- viability, T/C (second compound 1 µM, first compound 0.00949 µM): 52.5%
- viability, T/C (second compound 1 µM, first compound 0.03 µM): 37.2%
- viability, T/C (second compound 1 µM, first compound 0.0949 µM): 20.9%
- viability, T/C (second compound 1 µM, first compound 0.3 µM): 19.7%
- viability, T/C (second compound 1 µM, first compound 0.949 µM): 0.58%
- viability, T/C (second compound 1 µM, first compound 3 µM): 56.9%
- viability, T/C (second compound 3.16 µM, first compound 0.00949 µM): 47.9%
- viability, T/C (second compound 3.16 µM, first compound 0.03 µM): 31.1%
- viability, T/C (second compound 3.16 µM, first compound 0.0949 µM): 18.4%
- viability, T/C (second compound 3.16 µM, first compound 0.3 µM): 15.8%
- viability, T/C (second compound 3.16 µM, first compound 0.949 µM): 0.63%
- viability, T/C (second compound 3.16 µM, first compound 3 µM): 58.4%
- viability, T/C (second compound 10 µM, first compound 0.00949 µM): 31.4%
- viability, T/C (second compound 10 µM, first compound 0.03 µM): 18.4%
- viability, T/C (second compound 10 µM, first compound 0.0949 µM): 12.8%
- viability, T/C (second compound 10 µM, first compound 0.3 µM): 5.16%
- viability, T/C (second compound 10 µM, first compound 0.949 µM): 0.34%
- viability, T/C (second compound 10 µM, first compound 3 µM): 37.3%
